Measured values taken from patent publication US6100074A, “Mutant mono-oxygenase cytochrome P-450 cam” (BG plc, priority 1994, dated 2000).
Like-named read-outs stand apart in the source and are kept apart here.

Experiments:
[1] = biological target: T1, P450cam mutant Y96A, C334A (Pseudomonas putida, UniProt P00183, C335A/Y97A); assay type: biochemical, P. putida; conditions: also contains C334A
T1 construct: reconstituted with putidaredoxin and putidaredoxin reductase
Method: A solution containing 10 μM putidaredoxin, 2 μM putidaredoxin reductase, 1 μM cytochrome P-450cam mono-oyxgenase (wild-type or mutant) and 1 mM diphenylmethane in 100 mM KC1, 20 mM KH2 PO4 pH7.4 was preincubated at 25° C. in a shaker for 5 min. The enzymatic reaction was initiated by firstly adding NADH to a total concentration of 2 mM. Further four aliquots of NADH (to increase the NADH concentration by 1 mM each time) were added in intervals of 5 min and the reaction quenched after 30 min by adding 0.5 ml chloroform. The chloroform layer was analysed by gas chromatography.
(§1) Reaction products for some substrate compounds have been purified by high performance liquid chromatography and identified by mass spectroscopy, nuclear magnetic resonance, and/or co-elution. […] Table 4(a) to 4(h) details the product distributions for mutant and substrate combinations where this has been elucidated to date.
All mutants listed below also contain the C334A mutation.
Turnover rate measured as NADH consumption rate
(nmole NADH/nmole P450cam/s).

wild type P450cam [2] = biological target: T2, wild type P450cam (Pseudomonas putida, UniProt P00183); assay type: binding; conditions: Wild type; 200 μM test compound, phosphate buffer pH 7.4
Target sequence in this assay (P00183 whole entry): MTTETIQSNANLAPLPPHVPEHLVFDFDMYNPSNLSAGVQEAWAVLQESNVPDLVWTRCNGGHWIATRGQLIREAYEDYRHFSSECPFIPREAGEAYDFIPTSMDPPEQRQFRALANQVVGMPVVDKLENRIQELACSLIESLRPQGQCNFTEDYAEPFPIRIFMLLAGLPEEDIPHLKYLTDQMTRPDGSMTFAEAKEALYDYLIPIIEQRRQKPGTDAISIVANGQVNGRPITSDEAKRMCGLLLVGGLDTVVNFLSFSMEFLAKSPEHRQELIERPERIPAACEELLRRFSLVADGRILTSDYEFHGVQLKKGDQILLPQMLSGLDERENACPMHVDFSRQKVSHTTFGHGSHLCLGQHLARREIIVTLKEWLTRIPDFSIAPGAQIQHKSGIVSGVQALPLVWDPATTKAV

wild type P450cam [3] = biological target: T2, wild type P450cam; experiment: biochemical; assay type: binding; conditions: read-out: Vs DTT (percentage displacement of DTT bound to P-450)
Target sequence in this assay (P00183 whole entry): as above

P-450cam mutant Y96A [4] = biological target: T3, P-450cam mutant Y96A (Pseudomonas putida, UniProt P00183, Y97A); experiment: biochemical; assay type: binding; conditions: for Vs DTT (percentage displacement of DTT bound to P-450) / percent displacement of bound DTT at 200 µM: phosphate buffer; for Vs DTT (percentage displacement of DTT bound to P-450): 200 µM; for percent displacement of bound DTT at 200 µM / inhibition at 200 µM: read-out: Vs DTT (percentage displacement of DTT bound to P-450)
T3 sequence (P00183 2-415 Y97A): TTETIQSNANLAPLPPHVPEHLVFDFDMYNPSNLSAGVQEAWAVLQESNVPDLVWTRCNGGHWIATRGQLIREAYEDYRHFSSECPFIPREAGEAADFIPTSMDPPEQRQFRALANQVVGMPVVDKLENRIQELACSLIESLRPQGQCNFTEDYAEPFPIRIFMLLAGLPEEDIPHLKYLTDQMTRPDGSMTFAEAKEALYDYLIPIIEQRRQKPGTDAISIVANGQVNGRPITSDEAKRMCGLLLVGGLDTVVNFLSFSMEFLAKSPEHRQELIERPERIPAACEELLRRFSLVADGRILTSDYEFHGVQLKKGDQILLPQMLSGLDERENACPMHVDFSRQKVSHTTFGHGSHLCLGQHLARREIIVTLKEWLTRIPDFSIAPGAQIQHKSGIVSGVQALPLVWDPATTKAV

[5] = biological target: T4, P450cam mutant Y96L, C334A (Pseudomonas putida, UniProt P00183, C335A/Y97L); experiment: Product distribution following oxidation of substrates, Y96L (also C334A); assay type: biochemical, P. putida
T4 construct: reconstituted with putidaredoxin and putidaredoxin reductase
T4 sequence (P00259 whole entry): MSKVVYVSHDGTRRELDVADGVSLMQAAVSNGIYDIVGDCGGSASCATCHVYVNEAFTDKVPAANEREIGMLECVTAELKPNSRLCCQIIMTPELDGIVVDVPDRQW
T4 sequence (P16640 whole entry, further chain): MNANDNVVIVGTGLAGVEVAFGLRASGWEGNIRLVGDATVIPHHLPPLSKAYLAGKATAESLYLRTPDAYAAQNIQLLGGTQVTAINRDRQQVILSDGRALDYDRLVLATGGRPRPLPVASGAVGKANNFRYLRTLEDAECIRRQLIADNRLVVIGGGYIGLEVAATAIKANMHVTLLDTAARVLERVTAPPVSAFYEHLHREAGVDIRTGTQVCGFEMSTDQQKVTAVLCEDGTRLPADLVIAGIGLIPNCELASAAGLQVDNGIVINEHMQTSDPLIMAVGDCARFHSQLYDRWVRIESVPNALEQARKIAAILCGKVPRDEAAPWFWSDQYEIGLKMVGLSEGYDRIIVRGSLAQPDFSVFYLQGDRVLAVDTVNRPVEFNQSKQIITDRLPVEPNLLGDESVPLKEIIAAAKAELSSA
T4 sequence (P00183 2-415 Y97L/C335A): as the sequence (P00183 2-415 Y97A) above, with A96L, C334A counted along it
Method: (§2) […] The enzymatic reaction was initiated by firstly adding NADH to a total concentration of 2 mM. Further four aliquots of NADH (to increase the NADH concentration by 1 mM each time) were added in intervals of 5 min and the reaction quenched after 30 min by adding 0.5 ml chloroform. The chloroform layer was analysed by gas chromatography.
as §1
(§3) Product structure and distributions following oxidation of substrates
(§4) active site mutants. All mutants shown below also contain the C334A

[6] = biological target: T5, P450cam mutant Y96F, C334A (Pseudomonas putida, UniProt P00183, C335A/Y97F); assay type: biochemical, P. putida
T5 construct: reconstituted with putidaredoxin and putidaredoxin reductase
T5 sequence (P16640 whole entry): as the sequence (P16640 whole entry, further chain) above
T5 sequence (P00183 2-415 Y97F/C335A): as the sequence (P00183 2-415 Y97A) above, with A96F, C334A counted along it
T5 sequence (P00259 whole entry, further chain): as the sequence (P00259 whole entry) above
Method: as §2, §1, §3, §4

[7] = biological target: T1, P450cam mutant Y96A, C334A; assay type: biochemical, P. putida
Method: as §2, §1, §3, §4

wild type P450cam [8] = biological target: T2, wild type P450cam; experiment: Product distribution following oxidation of substrates, WT; assay type: biochemical, P. putida; parameters: reconstituted with putidaredoxin and putidaredoxin reductase
Method: as §2, §1, §3
Target sequence in this assay (P00259 whole entry): as above
Target sequence in this assay (P00183 whole entry): as the sequence (P00183 whole entry) above
Target sequence in this assay (P16640 whole entry, further chain): as the sequence (P16640 whole entry, further chain) above

[9] = biological target: T6, P450cam mutant Y96V, C334A (Pseudomonas putida, UniProt P00183, C335A/Y97V); experiment: Product distribution following oxidation of substrates, Y96V (also C334A); assay type: biochemical, P. putida
T6 construct: reconstituted with putidaredoxin and putidaredoxin reductase
T6 sequence (P16640 whole entry): as the sequence (P16640 whole entry, further chain) above
T6 sequence (P00259 whole entry, further chain): as the sequence (P00259 whole entry) above
T6 sequence (P00183 2-415 Y97V/C335A): as the sequence (P00183 2-415 Y97A) above, with A96V, C334A counted along it
Method: as §2, §1, §3, §4

P-450cam mutant Y96A [10] = biological target: T3, P-450cam mutant Y96A; assay type: biochemical; parameters: key: Those substrates where oxidation has been demonstrated by means of NADH turnover are marked with a + sign
[11] = biological target: T7, P450cam mutant F87A-F96G-F193A (C334A) (Pseudomonas putida, UniProt P00183, C335A/F194A/F88A/Y97G); assay type: biochemical, P. putida
T7 construct: reconstituted with putidaredoxin and putidaredoxin reductase
T7 sequence (P00259 whole entry): as the sequence (P00259 whole entry) above
T7 sequence (P16640 whole entry, further chain): as the sequence (P16640 whole entry, further chain) above
T7 sequence (P00183 2-415 F88A/Y97G/F194A/C335A): as the sequence (P00183 2-415 Y97A) above, with F87A, A96G, F193A, C334A counted along it
Method: as §2, §1, §3, §4

[12] = Wild type, 200 μM DTT, 200 μM test compound, phosphate buffer
[13] = Mutant Y96A, 200 μM DTT, 200 μM test compound

T1 sequence (P00259 whole entry): as the sequence (P00259 whole entry) above
T1 sequence (P00183 2-415 Y97A/C335A): as the sequence (P00183 2-415 Y97A) above, with C334A counted along it
T1 sequence (P16640 whole entry, further chain): as the sequence (P16640 whole entry, further chain) above

CCCCCC(C)C [2-methyl heptane]
Turnover rate measured as NADH consumption rate [1]: 2.1 nmole NADH/nmole P450cam/s

CC1CCCCC1 [Methylcyclohexane]
ΔSpin high/low (percentage of P-450 converted from low- to high-spin) (wild type P450cam [2]): 50% | inhibition at 200 µM (wild type P450cam [3]; [12]): 50% | Vs DTT (percentage displacement of DTT bound to P-450) (P-450cam mutant Y96A [4]; [13]): 70% | percent displacement of bound DTT at 200 µM (P-450cam mutant Y96A [4]; [13]): 60%

C=C(C)[C@H]1CC=C(C)C(=O)C1 [(S)-(+)-Carvone]
ΔSpin high/low (percentage of P-450 converted from low- to high-spin) (wild type P450cam [2]): 10% | inhibition at 200 µM (wild type P450cam [3]; [12]): 60% | percent displacement of bound DTT at 200 µM (P-450cam mutant Y96A [4]; [13]): 80%

C1=CC2C3C=CC(C3)C2C1 (centres unmarked) [Dicyclopentadiene]
ΔSpin high/low (percentage of P-450 converted from low- to high-spin) (wild type P450cam [2]): 50% | inhibition at 200 µM (wild type P450cam [3]; [12]): 80% | percent displacement of bound DTT at 200 µM (P-450cam mutant Y96A [4]; [13]): 90%

c1ccc(C2CCCCC2)cc1 [Cyclohexylbenzene]
Total products [5]: 10.4 area/10^5 | Products (%): Cis-4-ol ([5]; cyclohexylbenzene): 16% | Products (%): Trans-4-ol ([5]; cyclohexylbenzene): 23% | ΔSpin high/low (percentage of P-450 converted from low- to high-spin) (wild type P450cam [2]): 20% | Total products [6]: 1.1 area/10^5 | Products (%): Cis-4-ol ([6]; cyclohexylbenzene): 13% | Products (%): Trans-4-ol ([6]; cyclohexylbenzene): 6% | Total products [7]: 7.4 area/10^5 | Products (%): 3-ol ([7]; cyclohexylbenzene): 20% | Products (%): Cis-4-ol ([7]; cyclohexylbenzene): 45% | Products (%): Trans-4-ol ([7]; cyclohexylbenzene): 15% | inhibition at 200 µM (wild type P450cam [3]; [12]): 20% | Total products (wild type P450cam [8]): 0.8 area/10^5 | Products (%): Cis-4-ol (wild type P450cam [8]; cyclohexylbenzene): 12% | Products (%): Trans-4-ol (wild type P450cam [8]; cyclohexylbenzene): 25% | Total products [9]: 12.5 area/10^5 | Products (%): Cis-4-ol ([9]; cyclohexylbenzene): 23% | Products (%): Trans-4-ol ([9]; cyclohexylbenzene): 10%

CC(C)C(C)C [2,3-dimethyl butane]
Turnover rate measured as NADH consumption rate [1]: 16.8 nmole NADH/nmole P450cam/s

CC1(C)[C@@H]2CC[C@@]1(C)C(=O)C2=O [(1R)-(-)-Camphorquinone]
ΔSpin high/low (percentage of P-450 converted from low- to high-spin) (wild type P450cam [2]): 80% | inhibition at 200 µM (wild type P450cam [3]; [12]): 80% | percent displacement of bound DTT at 200 µM (P-450cam mutant Y96A [4]; [13]): 80%

C1CC[C@H]2CCCC[C@@H]2C1 [trans-Decahydro naphthalene]
ΔSpin high/low (percentage of P-450 converted from low- to high-spin) (wild type P450cam [2]): 20% | inhibition at 200 µM (wild type P450cam [3]; [12]): 10% | percent displacement of bound DTT at 200 µM (P-450cam mutant Y96A [4]; [13]): 70%

CCCCC [n-Pentane]
inhibition at 200 µM (wild type P450cam [3]; [12]): 5% | percent displacement of bound DTT at 200 µM (P-450cam mutant Y96A [4]; [13]): 40% | NADH turnover? (P-450cam mutant Y96A [10]): + | Turnover rate measured as NADH consumption rate [1]: 5.8 nmole NADH/nmole P450cam/s

C1=Cc2ccccc2CC1 [1,2-Dihydronaphthalene]
ΔSpin high/low (percentage of P-450 converted from low- to high-spin) (wild type P450cam [2]): 5% | inhibition at 200 µM (wild type P450cam [3]; [12]): 20% | percent displacement of bound DTT at 200 µM (P-450cam mutant Y96A [4]; [13]): 90%

c1ccc2c(c1)CCCC2 [1,2,3,4-Tetrahydro naphthalene]
ΔSpin high/low (percentage of P-450 converted from low- to high-spin) (wild type P450cam [2]): 5% | inhibition at 200 µM (wild type P450cam [3]; [12]): 10% | percent displacement of bound DTT at 200 µM (P-450cam mutant Y96A [4]; [13]): 40%

CC1(C)C(=O)[C@]2(C)CC[C@H]1C2 [(1R)-(-)-Fenchone]
ΔSpin high/low (percentage of P-450 converted from low- to high-spin) (wild type P450cam [2]): 40% | inhibition at 200 µM (wild type P450cam [3]; [12]): 70% | percent displacement of bound DTT at 200 µM (P-450cam mutant Y96A [4]; [13]): 80%

CCCCC(C)C [2-methyl hexane]
Relative activity (WT = 1) [6]: 2.3 | Products (%): 2-methyl-2-hexanol ([6]; 2-methyl hexane): 72% | Products (%): 2-methyl-3-hexanol ([6]; 2-methyl hexane): 7% | Products (%): 5-methyl-2-hexanol ([6]; 2-methyl hexane): 5% | Products (%): 5-methyl-2-hexanone ([6]; 2-methyl hexane): 16% | Relative activity (WT = 1) [7]: 2.6 | Products (%): 2-methyl-2-hexanol ([7]; 2-methyl hexane): 74% | Products (%): 2-methyl-3-hexanol ([7]; 2-methyl hexane): 4% | Products (%): 5-methyl-2-hexanol ([7]; 2-methyl hexane): 8% | Products (%): 5-methyl-2-hexanone ([7]; 2-methyl hexane): 14% | Turnover rate measured as NADH consumption rate [1]: 10.6 nmole NADH/nmole P450cam/s

c1ccc2c(c1)-c1cccc3cccc-2c13 [Fluoranthene]
Total products [11]: 0.2 area/10^6 | Products (%): A ([11]; fluoranthene): 0% | Products (%): B ([11]; fluoranthene): 100% | Total products [7]: 2.7 area/10^6 | Products (%): A ([7]; fluoranthene): 84% | Products (%): B ([7]; fluoranthene): 16% | inhibition at 200 µM (wild type P450cam [3]): 5% | inhibition at 200 µM (P-450cam mutant Y96A [4]): 10% | Total products (wild type P450cam [8]): 0 area/10^6 | Products (%): A (wild type P450cam [8]; fluoranthene): 0% | Products (%): B (wild type P450cam [8]; fluoranthene): 0%

CCC(C)C [2-methyl butane]
Turnover rate measured as NADH consumption rate [1]: 4.6 nmole NADH/nmole P450cam/s

CCCCCC [Hexane]
Relative activity (WT = 1) [6]: 18.2 | Relative activity (WT = 1) [7]: 25.5 | Vs DTT (percentage displacement of DTT bound to P-450) (P-450cam mutant Y96A [4]): 40 | inhibition at 200 µM (P-450cam mutant Y96A [4]): 60% | NADH turnover? (P-450cam mutant Y96A [10]): + | Turnover rate measured as NADH consumption rate [1]: 6.0 nmole NADH/nmole P450cam/s

CCC(C)(C)C [2,2-dimethyl butane]
Turnover rate measured as NADH consumption rate [1]: 14.0 nmole NADH/nmole P450cam/s

c1cc2ccc3cccc4ccc(c1)c2c34 [Pyrene]
Total products [5]: 1.5 area/10^6 | Total products [11]: 0.02 area/10^6 | Total products [6]: 1.5 area/10^6 | Total products [7]: 1.2 area/10^6 | Total products (wild type P450cam [8]): 0 area/10^6 | Total products [9]: 1.6 area/10^6

c1ccc(Oc2ccccc2)cc1 [Diphenylether]
ΔSpin high/low (percentage of P-450 converted from low- to high-spin) (wild type P450cam [2]): 10% | inhibition at 200 µM (wild type P450cam [3]; [12]): 5% | percent displacement of bound DTT at 200 µM (P-450cam mutant Y96A [4]; [13]): 50%

CCCCCCCCC [n-Nonane]
percent displacement of bound DTT at 200 µM (P-450cam mutant Y96A [4]; [13]): 45% | NADH turnover? (P-450cam mutant Y96A [10]): +

c1ccc2ccccc2c1 [Naphthalene]
Total products [5]: 0.7 area/10^5 | Products (%): 1-ol ([5]; naphthalene): 100% | Products (%): 2-ol ([5]; naphthalene): 0% | Total products [11]: 0.1 area/10^5 | Products (%): 1-ol ([11]; naphthalene): 100% | Products (%): 2-ol ([11]; naphthalene): 0% | Total products [6]: 2.4 area/10^5 | Products (%): 1-ol ([6]; naphthalene): 100% | Products (%): 2-ol ([6]; naphthalene): 0% | Total products [7]: 1.1 area/10^5 | Products (%): 1-ol ([7]; naphthalene): 100% | Products (%): 2-ol ([7]; naphthalene): 0% | percent displacement of bound DTT at 200 µM (P-450cam mutant Y96A [4]; [13]): 20% | Total products (wild type P450cam [8]): 0.016 area/10^5 | Products (%): 1-ol (wild type P450cam [8]; naphthalene): 100% | Products (%): 2-ol (wild type P450cam [8]; naphthalene): 0% | Total products [9]: 1.4 area/10^5 | Products (%): 1-ol ([9]; naphthalene): 100% | Products (%): 2-ol ([9]; naphthalene): 0%

CCCCCCCC [n-Octane]
inhibition at 200 µM (wild type P450cam [3]; [12]): 5% | percent displacement of bound DTT at 200 µM (P-450cam mutant Y96A [4]; [13]): 45% | NADH turnover? (P-450cam mutant Y96A [10]): + | Turnover rate measured as NADH consumption rate [1]: 5.8 nmole NADH/nmole P450cam/s

CCC(CC)CC [3-ethyl pentane]
Turnover rate measured as NADH consumption rate [1]: 16.2 nmole NADH/nmole P450cam/s

C1CCCCC1 [Cyclohexane]
percent displacement of bound DTT at 200 µM (P-450cam mutant Y96A [4]; [13]): 60% | NADH turnover? (P-450cam mutant Y96A [10]): +
